Source: patent US20260224524A1, “A PHARMACEUTICAL COMPOSITION TARGETING MUTANT P53 AND HER2” (DR DOZO LABORATORIES, priority 2023, published 2026)
Read-outs that look alike come from different tables or passages of the source.

Columns and labels:
A549 cell line [1] = assay: Cytotoxicity MTT assay against A549; assay type: cell-based; conditions: Homo sapiens; for inhibition at 1.563 µM / inhibition at 3.125 µM / inhibition at 6.25 µM / inhibition at 12.5 µM / inhibition at 25 µM / inhibition at 50 µM / inhibition at 100 µM: A549, A549
Experimental: For cytotoxicity studies, Test sample was considered as 100% stock and serial two-fold dilutions were prepared from 10% to 0.156% using F-12K plain media for treatment. 10 mM stock of Standard Doxorubicin was diluted from 100 μM to […] using F-12K plain media for treatment.
(§1) A549 cells were cultured in F-12K medium with appropriate supplements in a humidified atmosphere of 5% CO2 at 37° C. until confluent. The viability of the cells was checked using conventional hemocytometer. Appropriate cell density per ml of media was prepared and seeded in a 96 well plate and incubated for 24 h at 37° C. with 5% CO2 to assess the cell viability.
• 1. The cell count was adjusted to 5×10^5 cells/ml using complete media. To each well of the 96 well microtiter plate, 100 μl of the diluted cell suspension (50,000 cells/well) was added and incubated for 24 h at 37° C. in 5% CO2 atmosphere. • 2. After 24 h, the cells were treated with various concentrations of test compound and incubated at 37° C. for 24 h in 5% CO2 atmosphere. • 3. After incubation, the test solutions in the wells were discarded and 100 μl of MTT (5 mg/10 ml of MTT in PBS) was added to each well. The plates were incubated for 4 h at 37° C. in 5% CO2 atmosphere. • 4. The supernatants were removed and 100 μl of DMSO was added and the plates were gently shaken to solubilize the formed formazan. The absorbance was measured using a microplate reader at a wavelength of 590 nm. • 5.
% Inhibition=(OD of sample−OD of Control/OD of Control)×100

A549 cell line [2] = assay: Cell viability test using trypan blue exclusion method against A549; assay type: cell-based; conditions: Homo sapiens, 24 h
Experimental: For cytotoxicity studies, Test sample was considered as 100% stock and serial two-fold dilutions were prepared from 10% to 0.156% using F-12K plain media for treatment. 10 mM stock of Standard Doxorubicin was diluted from 100 μM to 1.56 μM using F-12K plain media for treatment.
as §1
• 1. The cell count was adjusted to 5×10^5 cells/ml using complete media. To each well of the 96 well microtiter plate, 100 μl of the diluted cell suspension (50,000 cells/well) was added and incubated for 24 h at 37° C. in 5% CO2 atmosphere. • 2. After 24 h, the cells were treated with various concentrations of test compound and incubated at 37° C. for 24 h in 5% CO2 atmosphere. • 3. After incubation the test solutions in the wells were discarded. • 4. Cells were trypsinized and 20 μl of cell suspension was taken for viability counting. • 5. To this 20 μl of trypan blue dye was added and mixed well. • 6. The mixture was then loaded to haemocytometer at the end of the notch with the help of pipette. • 7. Haemocytometer was kept under the inverted microscope and scored in each quadrant. • 8. Cell counting wad done according to Neubauer's rules and noted. Percentage cell viability was calculated for the obtained data using below given formulae.
Viable cells=Average viable cells*2*10^3 cells/100 μl
% Viability=Viable cells/Total cells×100

[3] = read-out: % Mean Cell Inhibition

Compound `COc1cccc2c1C(=O)c1c(O)c3c(c(O)c1C2=O)C[C@@](O)(C(=O)CO)C[C@@H]3O[C@H]1C[C@H](N)[C@H](O)[C@H](C)O1` [Doxorubicin] has an inhibition at 1.563 µM (A549 cell line [1]; n = 1, read-out: % Inhibition) of 17.3%, an inhibition at 1.563 µM (A549 cell line [1]; n = 2, read-out: % Inhibition) of 19.6% and an inhibition at 1.563 µM (A549 cell line [1]; n = 3, read-out: % Inhibition) of 18.4%. For the same compound, the inhibition at 1.563 µM (A549 cell line [1]; [3]) was 18.4%, the inhibition at 3.125 µM (A549 cell line [1]; n = 1, read-out: % Inhibition) was 27.8% and the inhibition at 3.125 µM (A549 cell line [1]; n = 2, read-out: % Inhibition) was 25.6%. For the same compound, the inhibition at 3.125 µM (A549 cell line [1]; n = 3, read-out: % Inhibition) was 24.7%, the inhibition at 3.125 µM (A549 cell line [1]; [3]) was 26.1% and the inhibition at 6.25 µM (A549 cell line [1]; n = 1, read-out: % Inhibition) was 36.3%. The inhibition at 6.25 µM (A549 cell line [1]; n = 2, read-out: % Inhibition) was 35.9%, the inhibition at 6.25 µM (A549 cell line [1]; n = 3, read-out: % Inhibition) was 37.4% and the inhibition at 6.25 µM (A549 cell line [1]; [3]) was 36.5%. The inhibition at 12.5 µM (A549 cell line [1]; n = 1, read-out: % Inhibition) was 45.4%, the inhibition at 12.5 µM (A549 cell line [1]; n = 2, read-out: % Inhibition) was 44.2% and the inhibition at 12.5 µM (A549 cell line [1]; n = 3, read-out: % Inhibition) was 45.8%. It also gave an inhibition at 12.5 µM (A549 cell line [1]; [3]) of 45.1%, an inhibition at 25 µM (A549 cell line [1]; n = 1, read-out: % Inhibition) of 64.5% and an inhibition at 25 µM (A549 cell line [1]; n = 2, read-out: % Inhibition) of 65.2%. For the same compound, the inhibition at 25 µM (A549 cell line [1]; n = 3, read-out: % Inhibition) was 65.2%, the inhibition at 25 µM (A549 cell line [1]; [3]) was 65% and the inhibition at 50 µM (A549 cell line [1]; n = 1, read-out: % Inhibition) was 75.5%. For the same compound, the inhibition at 50 µM (A549 cell line [1]; n = 2, read-out: % Inhibition) was 74.4%, the inhibition at 50 µM (A549 cell line [1]; n = 3, read-out: % Inhibition) was 78.2% and the inhibition at 50 µM (A549 cell line [1]; [3]) was 76%. It also gave an inhibition at 100 µM (A549 cell line [1]; n = 1, read-out: % Inhibition) of 87.9%, an inhibition at 100 µM (A549 cell line [1]; n = 2, read-out: % Inhibition) of 90.3% and an inhibition at 100 µM (A549 cell line [1]; n = 3, read-out: % Inhibition) of 89.2%. For the same compound, the inhibition at 100 µM (A549 cell line [1]; [3]) was 89.2%, the IC50 (A549 cell line [1]; A549, MTT, 24 h) was 20.3 µM and the viability at 1.563 µM (A549 cell line [2]; 1.563 μM) was 85.5%. For the same compound, the viability at 3.125 µM (A549 cell line [2]; 3.125 μM) was 74.5%, the viability at 6.25 µM (A549 cell line [2]; 6.25 μM) was 66.1% and the viability at 12.5 µM (A549 cell line [2]; 12.5 μM) was 51.6%. For the same compound, the viability at 25 µM (A549 cell line [2]; 25 μM) was 36.5%, the viability at 50 µM (A549 cell line [2]; 50 μM) was 26.2% and the viability at 100 µM (A549 cell line [2]; 100 μM) was 11.1%.
